# According to article PMC6189519, “Evaluation of the DREAM Technique for a High-Throughput Deorphanization of Chemosensory Receptors in Drosophila” (Frontiers in Molecular Neuroscience, 2018):
# Legend:
# Assay in all cases: single sensillum recording of the wild-type OSN expressing the receptor
# [1] = biological target: T1, Or19a (Drosophila melanogaster, UniProt Q9I816); conditions: odorant dilution 10^-1 in hexane, 0.5 s stimulus
# T1 construct: native full-length receptor in olfactory sensory neurons (ai2 sensillum) of wild-type flies; paralogue Or19b may be co-expressed; with Odorant receptor coreceptor
# T1 sequence (Q9I816 1-387): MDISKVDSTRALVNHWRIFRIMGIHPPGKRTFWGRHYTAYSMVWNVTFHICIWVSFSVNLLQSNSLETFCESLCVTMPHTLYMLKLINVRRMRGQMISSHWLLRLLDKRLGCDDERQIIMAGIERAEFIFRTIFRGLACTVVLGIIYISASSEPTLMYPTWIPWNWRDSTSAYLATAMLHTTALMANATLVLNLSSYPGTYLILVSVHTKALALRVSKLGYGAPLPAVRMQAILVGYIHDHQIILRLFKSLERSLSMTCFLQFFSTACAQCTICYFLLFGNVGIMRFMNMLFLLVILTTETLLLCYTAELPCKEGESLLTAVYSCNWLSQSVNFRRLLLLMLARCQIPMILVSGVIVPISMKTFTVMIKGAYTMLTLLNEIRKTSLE
# T1 sequence (Q9VNB5 1-486 partner): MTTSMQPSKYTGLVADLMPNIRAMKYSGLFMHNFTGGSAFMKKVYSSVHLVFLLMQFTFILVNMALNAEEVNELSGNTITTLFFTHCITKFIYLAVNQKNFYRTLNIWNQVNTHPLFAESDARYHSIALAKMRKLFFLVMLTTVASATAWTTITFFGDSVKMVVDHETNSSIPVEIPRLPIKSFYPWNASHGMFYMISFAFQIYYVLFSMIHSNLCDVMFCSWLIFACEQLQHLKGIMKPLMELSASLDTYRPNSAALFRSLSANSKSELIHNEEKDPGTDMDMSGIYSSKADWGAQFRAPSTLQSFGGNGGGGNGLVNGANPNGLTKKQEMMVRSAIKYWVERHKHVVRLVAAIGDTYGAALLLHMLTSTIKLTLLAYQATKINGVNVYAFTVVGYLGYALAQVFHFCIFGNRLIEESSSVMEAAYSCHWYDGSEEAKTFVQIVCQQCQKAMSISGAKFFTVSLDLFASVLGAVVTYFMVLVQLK
# [2] = biological target: T2, Ir31a (Drosophila melanogaster, UniProt Q8IPB8); conditions: agonist (best ligand); odorant dilution 10^-1 in hexane, 0.5 s stimulus
# T2 construct: native full-length ionotropic receptor in olfactory sensory neurons of wild-type flies (single sensillum recording); with Ionotropic receptor 8a
# T2 sequence (Q8IPB8 18-629): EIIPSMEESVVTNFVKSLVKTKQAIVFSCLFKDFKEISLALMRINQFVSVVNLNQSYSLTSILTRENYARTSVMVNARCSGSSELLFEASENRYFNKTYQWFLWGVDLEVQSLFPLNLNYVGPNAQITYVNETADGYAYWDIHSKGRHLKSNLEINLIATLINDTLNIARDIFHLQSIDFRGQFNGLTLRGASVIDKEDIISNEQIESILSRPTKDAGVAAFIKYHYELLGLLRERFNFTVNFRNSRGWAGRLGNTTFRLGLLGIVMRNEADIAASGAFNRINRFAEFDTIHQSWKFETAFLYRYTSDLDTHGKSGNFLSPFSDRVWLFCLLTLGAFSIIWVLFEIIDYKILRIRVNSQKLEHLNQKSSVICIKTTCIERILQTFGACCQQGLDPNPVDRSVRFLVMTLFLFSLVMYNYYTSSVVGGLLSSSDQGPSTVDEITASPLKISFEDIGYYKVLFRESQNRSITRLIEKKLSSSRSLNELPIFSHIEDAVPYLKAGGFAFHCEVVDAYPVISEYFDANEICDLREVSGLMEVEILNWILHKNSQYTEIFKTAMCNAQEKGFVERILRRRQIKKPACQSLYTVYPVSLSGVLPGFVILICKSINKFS
# T2 sequence (Q9W365 18-936 partner): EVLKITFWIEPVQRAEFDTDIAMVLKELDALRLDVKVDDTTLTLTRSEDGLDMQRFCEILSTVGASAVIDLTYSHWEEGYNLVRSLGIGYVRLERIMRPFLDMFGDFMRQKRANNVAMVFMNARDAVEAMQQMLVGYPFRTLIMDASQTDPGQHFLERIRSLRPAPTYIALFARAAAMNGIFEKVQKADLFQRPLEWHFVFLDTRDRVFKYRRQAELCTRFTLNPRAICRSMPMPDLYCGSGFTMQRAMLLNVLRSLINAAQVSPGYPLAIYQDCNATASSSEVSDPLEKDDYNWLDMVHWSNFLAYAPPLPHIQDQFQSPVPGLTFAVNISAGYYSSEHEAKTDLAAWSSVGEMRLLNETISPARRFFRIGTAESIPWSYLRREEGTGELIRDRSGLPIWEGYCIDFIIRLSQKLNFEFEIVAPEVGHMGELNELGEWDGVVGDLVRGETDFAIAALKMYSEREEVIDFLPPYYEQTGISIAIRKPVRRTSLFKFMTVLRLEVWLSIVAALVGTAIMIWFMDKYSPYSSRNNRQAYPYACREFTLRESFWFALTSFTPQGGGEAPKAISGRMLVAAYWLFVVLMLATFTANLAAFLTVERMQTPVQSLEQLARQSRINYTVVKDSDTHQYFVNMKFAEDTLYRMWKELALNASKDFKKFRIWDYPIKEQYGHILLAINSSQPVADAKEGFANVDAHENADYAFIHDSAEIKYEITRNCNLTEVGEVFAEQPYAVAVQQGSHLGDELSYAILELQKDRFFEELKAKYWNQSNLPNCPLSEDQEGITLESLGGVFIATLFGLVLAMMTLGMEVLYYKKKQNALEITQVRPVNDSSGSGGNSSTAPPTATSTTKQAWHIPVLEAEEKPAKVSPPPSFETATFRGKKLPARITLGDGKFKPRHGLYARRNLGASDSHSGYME
# [3] = biological target: T3, Or22a (Drosophila melanogaster, UniProt P81909); conditions: agonist; odorant dilution 10^-1 in hexane, 0.5 s stimulus
# T3 construct: native full-length receptor in olfactory sensory neurons (ab3A) of wild-type flies; Or22b may be co-expressed; with Odorant receptor coreceptor
# T3 sequence (P81909 1-397): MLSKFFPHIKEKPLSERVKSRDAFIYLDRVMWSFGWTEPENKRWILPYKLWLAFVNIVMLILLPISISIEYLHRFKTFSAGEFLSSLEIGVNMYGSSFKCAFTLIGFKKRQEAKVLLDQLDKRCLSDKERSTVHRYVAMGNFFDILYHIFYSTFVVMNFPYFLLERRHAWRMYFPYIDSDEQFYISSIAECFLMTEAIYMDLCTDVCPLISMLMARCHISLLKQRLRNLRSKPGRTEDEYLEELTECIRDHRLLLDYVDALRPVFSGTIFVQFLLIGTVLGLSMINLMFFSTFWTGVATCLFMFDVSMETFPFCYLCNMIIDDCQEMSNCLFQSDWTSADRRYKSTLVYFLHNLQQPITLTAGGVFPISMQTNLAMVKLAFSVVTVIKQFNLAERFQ
# T3 sequence (Q9VNB5 1-486 partner): T1 sequence (Q9VNB5 1-486 partner)
# [4] = biological target: T4, Or49b (Drosophila melanogaster, UniProt Q9V6H2); conditions: agonist (best ligand); odorant dilution 10^-1 in hexane, 0.5 s stimulus
# T4 construct: native full-length receptor in olfactory sensory neurons (ab6B) of wild-type flies (single sensillum recording); with Odorant receptor coreceptor
# T4 sequence (Q9V6H2 1-375): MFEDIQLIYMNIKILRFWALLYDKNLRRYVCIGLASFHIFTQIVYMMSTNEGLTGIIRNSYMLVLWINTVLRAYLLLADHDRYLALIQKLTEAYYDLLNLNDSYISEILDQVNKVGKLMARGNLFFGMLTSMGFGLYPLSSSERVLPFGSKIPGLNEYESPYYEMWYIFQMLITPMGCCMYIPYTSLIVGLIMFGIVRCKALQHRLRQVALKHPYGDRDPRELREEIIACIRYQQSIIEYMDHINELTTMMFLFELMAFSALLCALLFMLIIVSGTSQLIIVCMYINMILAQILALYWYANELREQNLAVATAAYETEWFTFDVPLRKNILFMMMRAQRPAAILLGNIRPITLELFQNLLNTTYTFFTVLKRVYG
# T4 sequence (Q9VNB5 1-486 partner): T1 sequence (Q9VNB5 1-486 partner)
smiles,measurement,setting,value
CCCC(=O)C(=O)O [2-oxo-valeric acid],spikes/s,"[1]; printed as gated by the odorant, direction not told",Or19a as an OR being gated by 2-oxo-valeric acid
same,spikes/s,[2],both being chemosensory receptors shown to be activated by stimulation with this odorant
same,spikes/s,[3],both being chemosensory receptors shown to be activated by stimulation with this odorant
CC(=O)OC/C=C(\C)CCC=C(C)C [geranyl acetate],spikes/s,[1]; agonist,OSNs expressing Or19a indeed become activated by high amounts of geranyl acetate
COc1ccccc1O [guaiacol],spikes/s,[4],confirming the published ligand–receptor interaction of guaiacol and Or49b
